Each block holds one compound with its values, some of them ahead of it.
Assays:
GOT1 [1] = target: T1, GOT1 (Homo sapiens, UniProt P17174); test: GOT1 enzymatic activity (inhibition) assay, MDH-coupled, absorbance 340 nm; format: biochemical; settings: in vitro, read-out: GOT1-inhibitory activity IC50
Procedure: The GOT1 enzymatic activity assay was carried out using a 96-well plate reader as previously reported. The 100 μL reaction system contained 0.1 mg/mL recombinant GOT1 protein, 1 mM α -KG, 1 mM NADH, 4 mM Asp, and 1 U/mL malate dehydrogenase, and measured absorbance at a wavelength of 340 nm. The degree of absorbance decrease was in direct proportion to GOT1 activity. The inhibitory activity in vitro was measured by adding different concentrations of compounds. SigmaPlot with the PlotEnzyme Kinetics Module was used to analyze the enzyme activity.

GOT1 [2] = target: T1, GOT1; test: Microscale thermophoresis (MST) binding to GOT1; settings: read-out: Kd value between AH and GOT1
Procedure: The Monolith NTTM Protein Labeling Kit was used to test the binding capacity of proteins to AH, according to the manufacturer’s instructions. GOT1 was labeled and diluted in a buffer containing 20 mM HEPES (pH 7.5) and Tween-20 (0.5 (v/v)%), and then incubated with different concentration of AH for 10 min at 37 °C. Subsequently, the materials were put into standard capillary tubes and tested for thermophoresis using a Monolith NT.115 instrument (NanoTemper Technologies, München, Germany). The parameters were set to temperature 25 °C, LED power 100%, and laser power 40%, with a 30 s on-time. NTAnalysis software was used to calculate the Kd values.

[3] = tested on: SW1990, PANC-1, and AsPC-1 cell lines; test: MTT cell viability assay, PDAC cell lines; format: cell-based; settings: Homo sapiens, 48 h, read-out: cytotoxicity IC50
Procedure: (§1) Pancreas (SW1990, AsPC-1, PANC-1), colorectal (HCT116), breast (HCC1806, MM231, MM453), and ovarian cancer cells (ES2), along with a nonmalignant human pancreatic duct epithelial cell line (HDPE6C7), were obtained from ATCC, and were cultured in 1640 medium or Dulbecco’s modified Eagle medium (DMEM) supplemented with 10% (v/v) fetal bovine serum (FBS), 100 μg/mL streptomycin, and 100 U/mL penicillin. Cells were maintained in a humidified atmosphere of 5% CO2 at 37 °C. MTT (3-(4,5-dimethylthiazol-2-yl)-2,5-diphenyl tetrazolium bromide) assay was used to assess the cell viability. Briefly, cells were seeded in 96-well plates at a density of 5 × 10^3 cells per well for 24 h. Then, the medium was removed, and the cells were treated with different concentrations (0.1–100 μM) of AH, with DMSO as a vehicle control. After incubation for 48 h, 100 μL of MTT solution (2 mg/mL) was added to each well, and the wells were incubated at 37 °C for another 4 h. The formed formazan crystals were dissolved in DMSO (200 μL/well) and shaken for 5 min. Then, the absorbance of the solution was measured at 490 nm with a microplate reader. IC50 values were interpolated from the resulting dose-dependent curves using GraphPad Prism 7.0. The reported IC50 values are the average of three independent experiments, each consisting of six replicates per concentration level (overall n = 18).

[4] = MTT cell viability assay, nonmalignant pancreatic duct epithelial cells; format: cell-based; settings: human, HPDE6C7 nonmalignant pancreatic duct epithelial cells, read-out: cytotoxicity IC50
Procedure: as §1

SW1990 cells [5] = test: Annexin V-FITC/PI apoptosis assay by flow cytometry; format: cell-based, human; settings: 48 h
Procedure: The Annexin V–FITC apoptosis kit was purchased from USA BD PharMingen™. In brief, different concentrations of AH were added to the wells for 48 h, and then the cells were harvested, before being resuspended in Annexin-binding buffer and incubated with Annexin V–FITC (10 mg/mL) and PI in the dark for 15 min. Flow cytometry was used to detect the stained cells and analyze the apoptosis immediately.

SW1990 cells [6] = test: Cell cycle assay, PI staining, flow cytometry; format: cell-based, human
Procedure: The phase distribution of DNA content was determined via propidium iodide (PI) staining. Cells were treated with varying doses of AH or vehicle for 48 h, and then the cell pellets were stained in the dark for 30 min with 60 μg/mL RNase A and 30 μg/mL PI. Finally, CellQuest software (Becton-Dickinson, Franklin Lakes, NJ, USA) was used to perform flow cytometric studies. Three separate experiments were used to determine the cell cycle.

SW1990 cells [7] = test: Metabolite abundance and NADPH/NADP+ ratio in cells; format: cell-based, human; settings: AH 10, 20 or 40 µM
Procedure: SW1990 cells were cultivated to around 50% confluence in DMEM media with 10 mM glucose, 2 mM glutamine, and 5% FBS. A complete medium was prepared prior to two hours of metabolite collection. Quantification kits were used to determine the abundance of Asp (Abcam, #ab102512, Cambridge, UK), Gln (BioVision, #K55, San Francisco, CA, USA), malate (BioVision, #K637, San Francisco, CA, USA), and OAA (Abcam, #ab83428, Cambridge, UK). According to the manufacturer’s instructions, we collected some cells and homogenized them in the buffers provided. The supernatants were centrifuged, and then deproteinized using a 10 K spin column before being analyzed and compared to standard curves.

SW1990 cells [8] = test: Intracellular ROS measurement with DCFDA; format: cell-based, human; settings: AH 10, 20 or 40 µM
Text: GOT1 is a key enzyme that is involved in the production of Gln-dependent NADPH in PDAC, and catalyzes the reversible conversion of Asp to OAA. To investigate the effects of AH on Gln metabolism, the associated metabolites including OAA and malate (Mal) were detected. […] As excessive reactive oxygen species (ROS) can enhance cellular oxidative stress—resulting in damage to DNA, proteins, or lipids, causing apoptosis or necrosis [29]—we examined the physiological correlation between AH treatment and ROS response. 2,7-Dichlorofluorescein diacetate (DCFDA) was used to measure the intracellular ROS levels.

SW1990 cells [9] = test: EDU staining and wound-healing cell migration test; format: cell-based, human; settings: 0-40 µM, 0-48 h
Procedure: SW1990 cells were seeded in 6-well plates for 24 h. Each well was scratched with a 10 μL pipette tip, and then the plate was washed with PBS to peel off the suspended cells, before adding different concentrations of AH (0–40 μM). Images from the same area of the wound were taken separately under a microscope from 0 to 48 h.

SW1990 xenografts = test: SW1990 xenograft in CB-17/SCID mice; format: in vivo
Procedure: Animal treatment and experiments were conducted in the Experimental Animal Center. Commercial 8-week-old CB-17/SCID mice (male) were purchased from Huafukang, China. After being resuspended using 0.1 mL of PBS, SW1990 cells (3 × 10^6) were injected subcutaneously into the lower flanks of the mice. When the tumors attained a diameter of ~3 mm, the mice were randomly divided into three groups—2.5 mg/kg, 5 mg/kg, and control—and were subsequently injected intraperitoneally with normal saline or AH every day. A Vernier caliper was used to measure the size of the tumors. After two weeks of therapy, mice were euthanized under deep anesthesia (chloral hydrate, 10%, 10 μL/g), and tumor tissue metabolites were detected using the above method. All animal studies were carried out in accordance with the Huazhong University of Science and Technology’s guidelines.

[10] = 2.5 and 5 mg/kg/d intraperitoneal, 14 days
[11] = tumor tissue after 14 days treatment

T1 sequence (P17174 whole entry): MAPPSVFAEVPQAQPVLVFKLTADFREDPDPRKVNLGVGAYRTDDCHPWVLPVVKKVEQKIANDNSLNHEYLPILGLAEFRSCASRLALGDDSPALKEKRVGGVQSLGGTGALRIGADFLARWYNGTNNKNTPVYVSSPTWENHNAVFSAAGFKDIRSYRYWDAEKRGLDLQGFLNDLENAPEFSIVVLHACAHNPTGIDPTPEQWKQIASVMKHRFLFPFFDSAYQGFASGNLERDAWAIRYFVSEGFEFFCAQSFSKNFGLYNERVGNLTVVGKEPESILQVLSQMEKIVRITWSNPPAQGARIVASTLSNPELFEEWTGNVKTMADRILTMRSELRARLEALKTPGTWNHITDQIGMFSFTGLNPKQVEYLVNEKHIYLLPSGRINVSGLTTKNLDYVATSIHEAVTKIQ

IC50 (GOT1 [1]): 19.16 ± 0.15 µM
SMILES: CO[C@H]1OC(=O)C(c2ccc(O)cc2)=C1Cc1ccc(O)c(CC=C(C)C)c1 [Compound 5, (+)-asperteretone B]

SMILES: CC(C)=CCc1cc(/C=C2\OC(=O)C(c3ccc(O)c(CC=C(C)C)c3)=C2O)ccc1O [Compound 6, aspulvinone H]
IC50 (GOT1 [1]): 5.91 ± 0.04 µM
Kd (GOT1 [2]): 2.14 ± 0.47 µM
IC50 [3]: 6.32 to 10.5 µM
IC50 at 48 h [4]: > 100 µM
apoptosis induction rate (SW1990 cells [5]; SW1990, 10 µM): 9.5%
apoptosis induction rate (SW1990 cells [5]; SW1990, 40 µM): 80.2%
proportion of S-phase cells (SW1990 cells [6]; SW1990, 10 µM): 32.5%
proportion of cells in G0/G1 phase (SW1990 cells [6]; SW1990, 10 µM): 59.4%
proportion of S-phase cells (SW1990 cells [6]; SW1990, 20 µM): 38.6%
proportion of cells in G0/G1 phase (SW1990 cells [6]; SW1990, 20 µM): 48.6%
proportion of S-phase cells (SW1990 cells [6]; SW1990, 40 µM): 43.9%
proportion of cells in G0/G1 phase (SW1990 cells [6]; SW1990, 40 µM): 43.5%
change in G2/M phase (SW1990 cells [6]; SW1990, high-dose AH): only a slight increase
content of Asp (SW1990 cells [7]): increasing
content of Mal (SW1990 cells [7]): reduced
content of OAA (SW1990 cells [7]): reduced
ratio of NADPH/NADP+ (SW1990 cells [7]): remarkably decreased
intracellular ROS level (SW1990 cells [8]): positively correlated
proliferation and migration (EDU staining, wound healing) (SW1990 cells [9]): anti-proliferative effect
body weight of the mice (SW1990 xenografts; [10]): no significant changes
histomorphology of the mice (SW1990 xenografts; [10]): no significant changes
tumor volume vs control group (SW1990 xenografts; 2.5 and 5 mg/kg/d intraperitoneal, 14 days, CB-17/SCID mice): significantly smaller
tumor tissue Asp (SW1990 xenografts; [11]): increased
tumor tissue Gln (SW1990 xenografts; [11]): increased
tumor tissue Mal (SW1990 xenografts; [11]): decreased
tumor tissue OAA (SW1990 xenografts; [11]): decreased
tumor tissue proportion of NADPH/NADP+ (SW1990 xenografts; [11]): decrease

IC50 (GOT1 [1]): 26.38 ± 0.1 µM
SMILES: COC(=O)[C@]1(Cc2ccc(O)c(CC=C(C)C)c2)OC(=O)C(O)=C1c1ccc(O)c(CC=C(C)C)c1 [Compound 12, (+)-3′,3′-di-(dimethylallyl)-butyrolactone II]

Source: paper PMC8618880, “Discovery of GOT1 Inhibitors from a Marine-Derived Aspergillus terreus That Act against Pancreatic Ductal Adenocarcinoma” (Marine Drugs, 2021)
